According to patent US20070098649A1, “Method and composition for controlling oral pathogens” (priority 2004, published 2007):
Like-named read-outs stand apart in the source and are kept apart here. Marks after values point to notes of the source that are not given here.

Legend:
[1] = system: A. actinomycetemcomitans; experiment: Relative cell surface hydrophobicity (hexanes partition); type: cell-based
[2] = system: S. mutans; experiment: as above; type: cell-based
[3] = system: S. gordonii; experiment: as above; type: cell-based
[4] = system: F. nucleatum; experiment: as above; type: cell-based
[5] = system: S. mutans; experiment: Viability assessment (bactericidal activity); type: cell-based
Method: (§1) Two representative organisms, S. mutans and F. nucleatum, were used in this study. […] Aliquots of 4 ml of agent, prepared in sterile water, were placed into sterile test tubes and 1 ml of adjusted cells was added. The control consisted of 4 ml of PBS and 1 ml of cells. Samples were removed at 0, 15, 30, and 60 minutes, serial dilutions were performed, and the appropriate dilutions plated out. The plates were incubated at 37° C. under appropriate atmospheric conditions for up to 72 hours. Viable colony counts were determined and compared to nontreated control Percentage kill was calculated using the formula: ([…]×100. Log reduction was also calculated on Log10 transformed data. Effect of Berberine on Cell Surface Hydrophobicity

[6] = system: F. nucleatum; experiment: Viability assessment (bactericidal activity); type: cell-based
Method: as §1

[7] = system: S. mutans; experiment: Growth on agar with berberine and/or methylene blue (efflux screen); type: cell-based
[8] = system: P. gingivalis; experiment: Relative cell surface hydrophobicity (hexanes partition); type: cell-based
[9] = system: S. gordonii; experiment: Growth on agar with berberine and/or methylene blue (efflux screen); type: cell-based
[10] = system: A. actinomycetemcomitans; experiment: Accumulation of berberine, fluorimetric assay; type: cell-based; conditions: CCCP 100 μM added five minutes after berberine; FIG. 1
Method: Accumulation of berberine in A. actinomycetemcomitans was evaluated using a fluorimetric assay (based in Giraud et al., 2000). Overnight cells were harvested as previously described, washed twice with 50 mM sodium phosphate buffer (pH 7), resuspended in the same buffer at a concentration of 1×10^9 CFU ml^−1. The cells were equilibrated for 10 minutes at 37° C. Berberine was added at a final concentration of 500 μg ml^−1. After addition of berberine, 0.5 ml samples were removed at different time intervals. Five minutes after the addition of berberine, the efflux pump inhibitor carbonyl cyanide m-chlorophenylhydrazone (CCCP) was added to the reaction mixture (final concentration 100 μM). The samples were immediately diluted with 1 ml ice-cold sodium phosphate buffer and then were centrifuged for 5 minutes at 560.0×g. The pellet was washed once with 1 ml ice-cold buffer and resuspended in 1 ml of 0.1 M glycine hydrochloride (pH 3) for at least 15 hours at room temperature. The fluorescence of the supernatant was measured (excitation 355 nm and emission 517 nm) with a spectrofluorimeter (Model 810/814, Photon Technology International, Monmouth Junction, N.J.).

[11] = system: Streptococcus mutans; experiment: Combination determination (FIC, MIC in combination); type: cell-based; conditions: S. mutans
Method: (§2) The alkaloids were tested in pair-wise combinations (fractional inhibitory concentrations, FIC) against all the bacteria to determine whether interactions were antagonistic (FIC>1), additive (0.5<FIC<1), or synergistic (FIC<0.5). The FIC was calculated by the following: (MIC Acombination/MIC Aalone)+(MIC Bcombination/MIC Balone). Where A represents compound 1 and B represents compound 2. […] In the case of A. actinomycetemcomitans and P. aeruginosa, CHX was used at 0.78 to 50 μg ml^−1. Berberine (B-CG and B-S) was used at concentrations 0.9 to 250 μg ml^−1. The antibacterial efficacy of berberine (1.95 to 500 μg ml^−1) was tested in combination against P. aeruginosa with CHX (0.78 to 50 μg ml^−1) (Sigma Chemicals) and the polymyxin antibiotic Col (0.04 to 25 μg ml^−1) (Sigma Chemicals). The plates were incubated for 24 hours.
CHX was diluted from left to right at 10 to 0.08 μg ml^−1 ([…] 1 to 8), berberine was diluted from top to bottom at 250 to 0.09 μg ml^−1 ([…] 1 to 8). Column 9 was the cell control, column 10 was berberine alone (250 to 0.09 μg ml^−1); and column 11 was CHX alone (10 to 0.08 μg ml^−1). Row H was the solvent control (8% DMSO, H1 to H8). Column 12 was the media blank. The dilution assay was designed such that A1 contained the highest concentration of both agents (berberine 250 μg ml^−1 and CHX 10 μg ml^−1). The final concentration of berberine in wells A2 to A8 was […]. The FIC value was calculated from well C6. FIC was calculated by: (MIC Acombination/MIC Aalone)+(MIC Bcombination/MIC Balone).

[12] = system: Fusobacterium nucleatum; experiment: MIC microdilution assay; type: cell-based; conditions: Fusobacterium nucleatum, F. nucleatum
[13] = system: Streptococcus mutans; experiment: MIC microdilution assay; type: cell-based; conditions: Streptococcus mutans, S. mutans
[14] = system: Pseudomonas aeruginosa; experiment: MIC microdilution assay; type: cell-based; conditions: Pseudomonas aeruginosa; P. aeruginosa; agent alone; read-out: MIC of the antimicrobial agents alone
[15] = system: oral pathogens; experiment: Combination determination, statements on the oral pathogens; type: cell-based; conditions: berberine hydrochloride / berberine (B-CG and B-S)
Method: as §2

[16] = system: test bacteria; experiment: Relative cell surface hydrophobicity, statements on the test bacteria; type: cell-based; conditions: summary of Table 12
[17] = system: Staphylococcus aureus; experiment: MIC microdilution assay; type: cell-based; conditions: S. aureus, agent alone, read-out: MIC of the antimicrobial agents alone
[18] = system: Actinobacillus actinomycetemcomitans; experiment: MIC microdilution assay; type: cell-based; conditions: Aggregatibacter actinomycetemcomitans
[19] = system: Porphymonas gingivalis; experiment: MIC microdilution assay; type: cell-based; conditions: Porphyromonas gingivalis, P. gingivalis
[20] = system: Streptococcus gordonii; experiment: MIC microdilution assay; type: cell-based; conditions: Streptococcus gordonii, S. gordonii
[21] = system: Fusobacterium nucleatum; experiment: Combination determination (FIC, MIC in combination); type: cell-based; conditions: F. nucleatum
Method: as §2

[22] = system: Actinobacillus actinomycetemcomitans; experiment: as above; type: cell-based; conditions: A. actinomycetemcomitans grown under anaerobic conditions; berberine (B-CG) combined with CHX, Tet or Dox; MIC of the named agent in the combination
Method: as §2

[23] = system: Staphylococcus aureus; experiment: as above; type: cell-based; conditions: S. aureus
Method: as §2

[24] = system: Porphymonas gingivalis; experiment: as above; type: cell-based; conditions: P. gingivalis
Method: as §2

[25] = system: Streptococcus gordonii; experiment: as above; type: cell-based; conditions: S. gordonii
Method: as §2

[26] = system: Pseudomonas aeruginosa; experiment: as above; type: cell-based; conditions: P. aeruginosa
Method: as §2

[27] = system: Escherichia coli; experiment: as above; type: cell-based; conditions: E. coli
Method: as §2

[28] = system: Escherichia coli; experiment: MIC microdilution assay; type: cell-based; conditions: E. coli, agent alone, read-out: MIC of the antimicrobial agents alone
[29] = rats; oral; tritiated; cited from earlier work
[30] = system: wild type S. aureus; conditions: cited from earlier work
[31] = agar with 62.5, 125, 250 μg ml^−1, 48 hours at 37° C.
[32] = berberine (B-CG) combined with CHX, Tet or Dox, MIC of the named agent in the combination
[33] = agent alone, read-out: MIC of the antimicrobial agents alone
[34] = berberine hydrochloride / chloride

COc1ccc2cc3[n+](cc2c1OC)CCc1cc2c(cc1-3)OCO2 [B-CG, berberine chloride]
Typical reduction scores on relative cell surface hydrophobicity ([1]; berberine 500 μg ml^−1): −31.6%
Typical reduction scores on relative cell surface hydrophobicity ([2]; berberine 500 μg ml^−1): 14.8%
Typical reduction scores on relative cell surface hydrophobicity ([3]; berberine 500 μg ml^−1): 26.1%
Typical reduction scores on relative cell surface hydrophobicity ([4]; berberine 500 μg ml^−1): 29.9%
Viability after 60 min exposure (mean Log10 reduction of CFU) ([5]; B-CG (500) μg ml^−1): 0 Log10
Viability after 60 min exposure (mean Log10 reduction of CFU) ([5]; B-CG (1000) μg ml^−1): 1 Log10
Viability after 60 min exposure (mean Log10 reduction of CFU) ([6]; B-CG (500) μg ml^−1): 2.77 Log10
Viability after 60 min exposure (mean Log10 reduction of CFU) ([6]; B-CG (1000) μg ml^−1): 3.22 Log10
Concentration of B-CG in agar at which growth occurred [7, 31]: 62.5 µg/mL
Typical reduction scores on relative cell surface hydrophobicity ([8]; berberine 500 μg ml^−1): 26.7%
Concentration of B-CG in agar at which growth occurred [9, 31]: 62.5 µg/mL

N#CC(C#N)=NNc1cccc(Cl)c1 [CCCP, carbonyl cyanide m-chlorophenylhydrazone]
Effect on berberine accumulation [10]: very rapid and marked increase in berberine accumulation

[H]/N=C(\N/C(=N/[H])NCCCCCCNC(=N)NC(=N)Nc1ccc(Cl)cc1)Nc1ccc(Cl)cc1 [CHX, chlorhexidine gluconate]
Typical reduction scores on relative cell surface hydrophobicity ([1]; agent alone 5 μg ml^−1): −2.6%
Typical reduction scores on relative cell surface hydrophobicity ([2]; agent alone 5 μg ml^−1): 5.1%
MIC of the antimicrobial agents in combination [11, 32]: 0.04 µg/mL
Approximate amount of antibiotic required when combined with berberine relative to when the agent is used alone ([11]; fraction of the amount alone): <½
MIC alone used for the FIC ([11]; same plate, 48 h): 1.25 µg/mL
MIC in combination used for the FIC ([11]; well C6, berberine (B-G) with CHX, 48 h): 0.3125 µg/mL
Typical reduction scores on relative cell surface hydrophobicity ([3]; agent alone 5 μg ml^−1): −6.3%
MIC [12, 33]: 2.5 µg/mL
MIC ([12]; Fn, read-out: MIC of Goldenseal Alkaloids Against Selected Oral Pathogens): 2.5 µg/mL
Typical reduction scores on relative cell surface hydrophobicity ([4]; agent alone 5 μg ml^−1): 3.7%
Viability after 60 min exposure (mean Log10 reduction of CFU) ([5]; CHX (20) μg ml^−1): 1.69 Log10
Viability after 60 min exposure (mean Log10 reduction of CFU) ([6]; CHX (20)): 3.09* Log10
MIC [13, 33]: 1.25 µg/mL
MIC ([13]; Sm, read-out: MIC of Goldenseal Alkaloids Against Selected Oral Pathogens): 1.25 µg/mL
MIC [14]: 6.25 µg/mL
Typical reduction scores on relative cell surface hydrophobicity ([8]; agent alone 5 μg ml^−1): −2.7%
Growth inhibition effect when combined with berberine [15]: synergistic
Effect on the relative hydrophobicity of the cells [16]: did not appear to affect
MIC [17]: 2.5 µg/mL
MIC ([18]; A. actinomycetemcomitans grown under anaerobic conditions, agent alone, read-out: MIC of the antimicrobial agents alone): 50 µg/mL
MIC ([18]; Aa, A. actinomycetemcomitans, read-out: MIC of Goldenseal Alkaloids Against Selected Oral Pathogens): 50 µg/mL
MIC [19, 33]: 1.25 µg/mL
MIC ([19]; Pg, read-out: MIC of Goldenseal Alkaloids Against Selected Oral Pathogens): 2.5 µg/mL
MIC [20, 33]: 5 µg/mL
MIC ([20]; Sg, read-out: MIC of Goldenseal Alkaloids Against Selected Oral Pathogens): 5 µg/mL
MIC of the antimicrobial agents in combination [21, 32]: 0.31 µg/mL
Approximate amount of antibiotic required when combined with berberine relative to when the agent is used alone ([21]; fraction of the amount alone): <½
MIC of the antimicrobial agents in combination [22]: 50 µg/mL
MIC of the antimicrobial agents in combination [23, 32]: 0.63 µg/mL
Growth inhibition effect when combined with berberine [23, 34]: synergistic
Approximate amount of antibiotic required when combined with berberine relative to when the agent is used alone ([23]; fraction of the amount alone): ½
MIC of the antimicrobial agents in combination [24, 32]: 0.08 µg/mL
Approximate amount of antibiotic required when combined with berberine relative to when the agent is used alone ([24]; fraction of the amount alone): <½
MIC of the antimicrobial agents in combination [25, 32]: 0.63 µg/mL
Approximate amount of antibiotic required when combined with berberine relative to when the agent is used alone ([25]; fraction of the amount alone): <½
Interaction when combined with berberine [26]: no clear additive or synergistic effect
MIC of the antimicrobial agents in combination ([26]; berberine combined with CHX or Col, MIC of the named agent in the combination): 3.13** μg ml^−1
MIC of the antimicrobial agents in combination [27, 32]: 0.63 µg/mL
Growth inhibition effect when combined with berberine [27, 34]: synergistic
Approximate amount of antibiotic required when combined with berberine relative to when the agent is used alone ([27]; fraction of the amount alone): ½
MIC [28]: 1.25 µg/mL

COc1ccc2cc3[n+](cc2c1OC)CCc1cc2c(cc1-3)OCO2 [berberine chloride]
Excretion after 48 hours [29]: majority of the administered dose had been excreted in feces
Time of peak levels in liver and muscles [29]: 12 h

CN(C)c1ccc2nc3ccc(=[N+](C)C)cc-3sc2c1 [methylene blue (MB), methylene blue]
Growth on agar in the presence of methylene blue ([7]; 50 μg/ml): did not grow
Growth on agar in the presence of methylene blue ([9]; 50 μg/ml): did not grow

COC(=O)[C@H]1[C@H]2C[C@@H]3c4[nH]c5cc(OC)ccc5c4CCN3C[C@H]2C[C@@H](OC(=O)c2cc(OC)c(OC)c(OC)c2)[C@@H]1OC [reserpine]
Inhibition of the efflux of norfloxacin [30]: at least four
